# Assay results: patent publication US7588913B2, “Process for the preparation of cephradine” (DSM IP Assets B.V., priority 2003, dated 2009)
# Where two headings read alike, the source gives them in different places.
# Legend:
# [1] = Coloration of cephradine hydrate: absorbance at 450 nm; assay type: physicochemical; details: before stress stability test, crystallisation pH 4.80
# Description: The coloration of cephradine hydrate was determined by the absorbance at 450 nm. The absorbance and stress stability of the cephradine hydrate prepared as described above were determined. • 1. Absorbance 1 g of cephradine hydrate was dissolved in 10 ml 10% aqueous sodium carbonate solution. The absorbance was determined at 450 nm (=A450) on a Perkin Elmer 550 S spectrophotometer, with 10% aqueous sodium carbonate solution as a reference solution at room temperature. • 2. Stress Stability Test 1.
# [2] = Stress stability test 2 (3 hrs at 100° C., A450); assay type: physicochemical; details: for A450 after stress stability test (3 h, 100° C.): crystallisation pH 4.80, hydrate
# Description: (§1) The coloration of cephradine hydrate was determined by the absorbance at 450 nm. The absorbance and stress stability of the cephradine hydrate prepared as described above were determined. • 1. Absorbance
# (§2) 1 g of cephradine hydrate was dissolved in 10 ml 10% aqueous sodium carbonate solution. The absorbance was determined at 450 nm (=A450) on a Perkin Elmer 550 S spectrophotometer, with 10% aqueous sodium carbonate solution as a reference solution at room temperature. • 2. Stress Stability Test 1.
# Cephradine hydrate prepared enzymatically according to Example III and crystallised at different temperatures as indicated in Table 3 was maintained during 3 hrs at 100° C. The A450 of the cephradine crystals thus treated was determined as described above.
# [3] = assay type: physicochemical
# Description: as §1, §2
# Cephradine hydrate prepared enzymatically according to Example III and chemically according to Reference Experiment B) was kept at 40° C. at a relative humidity of 75%. After 0, 2, 4, 6 8, 10 and 12 weeks the absorbance at 450 nm was determined as described above.
Structure (SMILES),A450 at t = 0 [1],"A450 after stress stability test (3 h, 100° C.) [2]",other results
"CC1=C(C(=O)O)N2C(=O)[C@@H](NC(=O)[C@H](N)C3=CCC=CC3)[C@H]2SC1 [VII, cephradine hydrate]",0.017,0.330,–
"CC1=C(C(=O)O)N2C(=O)[C@@H](NC(=O)[C@H](N)C3=CCC=CC3)[C@H]2SC1 [Cephradine prepared chemically, cephradine hydrate]",–,–,A450 (color stability) ([3]; 0 weeks): 0.028; A450 (color stability) ([3]; 2 weeks): 0.065; A450 (color stability) ([3]; 4 weeks): 0.077; A450 (color stability) ([3]; 6 weeks): 0.161; A450 (color stability) ([3]; 8 weeks): 0.142; A450 (color stability) ([3]; 10 weeks): 0.211
"CC1=C(C(=O)O)N2C(=O)[C@@H](NC(=O)[C@H](N)C3=CCC=CC3)[C@H]2SC1 [VI, cephradine hydrate]",0.021,0.291,–
"CC1=C(C(=O)O)N2C(=O)[C@@H](NC(=O)[C@H](N)C3=CCC=CC3)[C@H]2SC1 [IV, cephradine hydrate]",0.051,0.301,–
"CC1=C(C(=O)O)N2C(=O)[C@@H](NC(=O)[C@H](N)C3=CCC=CC3)[C@H]2SC1 [V, cephradine hydrate]",0.018,0.056,Color stability of cephradine crystals versus crystallization temperature [2]: superior values
